Patent publication US9926330B2, “Inhibitors of IRAK4 activity” (MERCK SHARP & DOHME CORP., priority 2014, dated 2018)

biological target: GST tagged IRAK4 (Homo sapiens (Human), UniProt Q9NWZ3); assay: IRAK4 Kinase Assay (IMAP fluorescence polarization); assay type: biochemical; conditions: 0.5 nM GST tagged IRAK4, 100 nM fluorescent peptide substrate RP7030, 100 μM ATP, 30 minutes at 25° C., IMAP FP readout
Method: The kinase activity of IRAK4 is determined by its ability to catalyze the phosphorylation of a fluorescent polypeptide substrate. The extent of phosphorylation is measured using the IMAP technology (Molecular Devices) where the phosphorylated fluorescent substrate binds to the large M(III)-based nanoparticles which reduces the rotational speed of the substrate and thus increases its fluorescent polarization (FP).
20 μL reaction mixture contains 10 mM TriHCl, pH 7.2, 0.5 nM GST tagged IRAK4 (SignalChem), 100 nM fluorescent peptide substrate (RP7030, Molecular Devices), 100 μM ATP, 1 mM DDT, 1 mM MgCl2, and 0.01% Tween 20. The reaction is initiated by the addition of ATP. After incubation for 30 minutes at 25° C., 60 μL of Progressive IMAP Reagent (Molecular Devices) is added to stop the reaction. Change in RP7030's FP is determined by a FP reader (Analyst HT, LJL BioSystems).

Sequence of GST tagged IRAK4 (Q9NWZ3 whole entry): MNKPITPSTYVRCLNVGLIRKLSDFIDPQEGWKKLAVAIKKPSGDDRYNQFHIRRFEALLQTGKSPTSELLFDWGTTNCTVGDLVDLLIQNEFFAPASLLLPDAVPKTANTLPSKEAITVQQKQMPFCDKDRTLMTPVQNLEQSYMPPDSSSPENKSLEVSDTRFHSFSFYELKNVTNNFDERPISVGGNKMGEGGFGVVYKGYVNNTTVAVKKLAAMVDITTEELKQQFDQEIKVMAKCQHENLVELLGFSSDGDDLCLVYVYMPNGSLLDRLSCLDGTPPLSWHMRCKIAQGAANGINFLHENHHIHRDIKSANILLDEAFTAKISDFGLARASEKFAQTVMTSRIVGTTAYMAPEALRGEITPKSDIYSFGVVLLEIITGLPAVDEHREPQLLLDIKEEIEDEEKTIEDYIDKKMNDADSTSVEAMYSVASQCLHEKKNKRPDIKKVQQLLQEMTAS

IC50 [nM]	Structure (SMILES)
1210	Cc1cc2ncnc(N[C@H]3CC[C@H](N(C)C)CC3)c2cc1C [Example 1-1, (trans)-N1-(6,7-dimethylquinazolin-4-yl)-N4,N4-dimethylcyclohexane-1,4-diamine]
19	Cc1ccc2ncnc(N[C@H]3CC[C@H](N(C)C)CC3)c2c1 [Example 1-2, trans-N,N-dimethyl-N′-(6-methylquinazolin-4-yl)cyclohexane-1,4-diamine]
12	Cc1ccc2ncnc(N[C@H]3CC[C@H](N4CCOCC4)CC3)c2c1 [Example 1-3, 6-methyl-N-(trans-4-morpholin-4-ylcyclohexyl)quinazolin-4-amine]
15	FC(F)(F)c1ccc2ncnc(N[C@H]3CC[C@H](N4CCOCC4)CC3)c2c1 [Example 1-4, N-(trans-4-morpholin-4-ylcyclohexyl)-6-(trifluoromethyl)quinazolin-4-amine]
32	Cc1cc2c(N[C@H]3CC[C@H](N4CCOCC4)CC3)ncnc2cc1F [Example 1-5, 7-fluoro-6-methyl-N-(trans-4-morpholin-4-ylcyclohexyl)quinazolin-4-amine]
9	CN(C)[C@H]1CC[C@H](Nc2ncnc3ccc(C(F)(F)F)cc23)CC1 [Example 1-6, trans-N,N-dimethyl-N′-[6-(trifluoromethyl)quinazolin-4-yl]cyclohexane-1,4-diamine]
65	Cc1ccc2ncnc(O[C@H]3CC[C@H](N4CCOCC4)CC3)c2c1 [Example 1-7, 4-((trans)-4-((6-methylquinazolin-4-yl)oxy)cyclohexyl)morpholine]
384	Cc1ccc2ncnc(N[C@H]3CC[C@H](N4CC(S(C)(=O)=O)C4)CC3)c2c1 [Example 2-1, 6-methyl-N-((1R,4R)-4-(3-(methylsulfonyl)azetidin-1-yl)cyclohexyl)quinazolin-4-amine]
1360	Cc1ccc2ncnc(N[C@H]3CC[C@@H](N4CC(F)C4)CC3)c2c1 [Example 2-2, N-[cis-4-(3-fluoroazetidin-1-yl)cyclohexyl]-6-methylquinazolin-4-amine]
94	Cc1ccc2ncnc(N[C@H]3CC[C@H](N4CC(F)C4)CC3)c2c1 [Example 2-3, N-[trans-4-(3-fluoroazetidin-1-yl)cyclohexyl]-6-methylquinazolin-4-amine]
2200	Cc1ccc2ncnc(N[C@H]3CC[C@@H](N4CCNC(=O)C4)CC3)c2c1 [Example 2-4, 4-{cis-4-[(6-methylquinazolin-4-yl)amino]cyclohexyl}piperazin-2-one]
113	Cc1ccc2ncnc(N[C@H]3CC[C@H](N4CCNC(=O)C4)CC3)c2c1 [Example 2-5, 4-{trans-4-[(6-methylquinazolin-4-yl)amino]cyclohexyl}piperazin-2-one]
2350	Cc1ccc2ncnc(N[C@H]3CC[C@H](N4CC(O)C4)CC3)c2c1 [Example 2-6, 1-{trans-4-[(6-methylquinazolin-4-yl)amino]cyclohexyl}azetidin-3-ol]
37	Cc1ccc2ncnc(N[C@H]3CC[C@@H](N4CC(O)C4)CC3)c2c1 [Example 2-7, 1-{cis-4-[(6-methylquinazolin-4-yl)amino]cyclohexyl}azetidin-3-ol]
234	Cc1ccc2ncnc(N[C@H]3CC[C@H](N4CCC(F)(F)C4)CC3)c2c1 [Example 2-8, N-[trans-4-(3,3-difluoropyrrolidin-1-yl)cyclohexyl]-6-methylquinazolin-4-amine]
95	Cc1ccc2ncnc(N[C@H]3CC[C@H](N4CCC5(COC5)C4)CC3)c2c1 [Example 2-9, 6-methyl-N-[trans-4-(2-oxa-6-azaspiro[3.4]oct-6-yl)cyclohexyl]quinazolin-4-amine]

IC50 [nM]	Structure (SMILES)
384	Cc1ccc2ncnc(N[C@H]3CC[C@@H](N4CC(S(C)(=O)=O)C4)CC3)c2c1 [Example 2-10, 6-methyl-N-{cis-4-[3-(methylsulfonyl)azetidin-1-yl]cyclohexyl}quinazolin-4-amine]
88	Cc1ccc2ncnc(NC3CCC(N4CCC(C(F)(F)F)CC4)CC3)c2c1 (stereo not shown) [Example 2-11, 6-methyl-N-{4-[4-(trifluoromethyl)piperidin-1-yl]cyclohexyl}quinazolin-4-amine]
9380	Cc1ccc2ncnc(NC3CCC(N4CCC(C(F)(F)F)CC4)CC3)c2c1 (stereo not shown) [Example 2-12, 6-methyl-N-{4-[4-(trifluoromethyl)piperidin-1-yl]cyclohexyl}quinazolin-4-amine]
17	Cc1ccc2ncnc(NC3CCC(N4CCCC(C(F)(F)F)C4)CC3)c2c1 (stereo not shown) [Example 2-13, 6-methyl-N-{4-[3-(trifluoromethyl)piperidin-1-yl]cyclohexyl}quinazolin-4-amine]
3230	Cc1ccc2ncnc(NC3CCC(N4CCCCC4C(F)(F)F)CC3)c2c1 (stereo not shown) [Example 2-14, 6-methyl-N-{4-[2-(trifluoromethyl)piperidin-1-yl]cyclohexyl}quinazolin-4-amine]
1760	Cc1ccc2ncnc(NC3CCC(N4CCCCC4C(F)(F)F)CC3)c2c1 (stereo not shown) [Example 2-15, 6-methyl-N-{4-[2-(trifluoromethyl)piperidin-1-yl]cyclohexyl}quinazolin-4-amine]
269	Cc1ccc2ncnc(NC3CCC(N4CCCC(C(F)(F)F)C4)CC3)c2c1 (stereo not shown) [Example 2-16, 6-methyl-N-{4-[3-(trifluoromethyl)piperidin-1-yl]cyclohexyl}quinazolin-4-amine]
77	Cc1ccc2ncnc(N[C@H]3CC[C@H](NC4CCOCC4)CC3)c2c1 [Example 2-17, (trans)-N1-(6-methylquinazolin-4-yl)-N4-(tetrahydro-2H-pyran-4-yl)cyclohexane-1,4-diamine]
46	Cc1ccc2ncnc(N[C@H]3CC[C@H](NCC4CCOCC4)CC3)c2c1 [Example 2-18, trans-N-(6-methylquinazolin-4-yl)-N′-(tetrahydro-2H-pyran-4-ylmethyl)cyclohexane-1,4-diamine]
54	Cc1ccc2ncnc(N[C@H]3CC[C@H](N[C@H]4CCOC(C)(C)C4)CC3)c2c1 [Example 2-19, trans-N-[(4S)-2,2-dimethyltetrahydro-2H-pyran-4-yl]-N′-(6-methylquinazolin-4-yl)cyclohexane-1,4-diamine]
45	Cc1ccc2ncnc(N[C@H]3CC[C@H](NCc4cccs4)CC3)c2c1 [Example 2-20, trans-N-(6-methylquinazolin-4-yl)-N′-(thiophen-2-ylmethyl)cyclohexane-1,4-diamine]
73	Cc1ccc2ncnc(N[C@H]3CC[C@H](N[C@@H](C)C4CC4)CC3)c2c1 [Example 2-21, trans-N-[(1S)-1-cyclopropylethyl]-N′-(6-methylquinazolin-4-yl)cyclohexane-1,4-diamine]
67	Cc1ccc2ncnc(N[C@H]3CC[C@H](N[C@@H](C)CC(F)(F)F)CC3)c2c1 [Example 2-22, trans-N-(6-methylquinazolin-4-yl)-N′-[(1S)-3,3,3-trifluoro-1-methylpropyl]cyclohexane-1,4-diamine]
123	Cc1ccc2ncnc(N[C@H]3CC[C@H](N[C@@H](C)C(C)(C)O)CC3)c2c1 [Example 2-23, (3S)-2-methyl-3-({trans-4-[(6-methylquinazolin-4-yl)amino]cyclohexyl}amino)butan-2-ol]
44	Cc1ccc2ncnc(N[C@H]3CC[C@H](NC(C)C)CC3)c2c1 [Example 2-24, trans-N-(1-methylethyl)-N′-(6-methylquinazolin-4-yl)cyclohexane-1,4-diamine]
